Measurements from patent US6555547B1, “Method for treating a patient with neoplasia by treatment with a vinca alkaloid derivative” (Cell Pathways, Inc., priority 2000, dated 2003).
Like-named read-outs stand apart in the source and are kept apart here.

Assays:
[1] = molecular target: T1, PDE Peak A (PDE5) from SW480 cells (Homo sapiens, UniProt O76074); assay: Inhibition of cGMP hydrolysis by PDE Peak A from SW480; format: biochemical
T1 construct: endogenous in cells; host or cells: SW480 colon cancer cells; DEAE-Trisacryl M fraction of the 105,000 g supernatant

[2] = tested on: cGMP and cAMP in HT-29 cells; assay: Cyclic nucleotide levels in HT-29 cells by radioimmunoassay; format: cell-based, human; conditions: HT-29 cells treated 30 minutes
[3] = tested on: HT-29 cells; assay: Growth inhibition assay, SRB; format: cell-based, human
[4] = tested on: premalignant lesions in mouse mammary gland organ culture; assay: Mammary gland organ culture model
Excerpt: Test compounds identified by the above methods can be tested for antineoplastic activity by their ability to inhibit the incidence of pre-neoplastic lesions in a mammary gland organ culture system. This mouse mammary gland organ culture technique has been successfully used by other investigators to study the effects of known antineoplastic agents such as certain NSAIDs, retinoids, tamoxifen, selenium, and certain natural products, and is useful for validation of the screening method of the present invention.
For example, female BALB/c mice can be treated with a combination of estradiol and progesterone daily, in order to prime the glands to be responsive to hormones in vitro. The animals are sacrificed, and thoracic mammary glands are excised aseptically and incubated for ten days in growth media supplemented with insulin, prolactin, hydrocortisone, and aldosterone. DMBA (7,12-dimethylbenz(a)anthracene) is added to medium to induce the formation of premalignant lesions. […]
The extent of the area occupied by the mammary lesions can be quantitated by projecting an image of the gland onto a digitation pad. […] The space covered by each of the non-regressed structures is also outlined on the digitization pad and quantitated by the computer. […]

[5] = molecular target: T2, cGMP binding sites of GST-cGB-PDE5 fusion protein (Homo sapiens, UniProt O76074); assay: cGMP binding assay; conditions: for Competition with cGMP for binding of GST-cGB-PDE5 at high concentration: 100 μM, cGMP 2 μM
T2 construct: made in house; host or cells: E. coli BL21 (DE3)

[6] = tested on: HT-29 cells; assay: Apoptosis and necrosis, morphological (acridine orange/ethidium bromide); format: cell-based, human; conditions: HT-29, treated 6 days
Excerpt: Following treatment with a compound, cultures can be assayed for apoptosis and necrosis by florescent microscopy following labeling with acridine orange and ethidium bromide. The method for measuring apoptotic cell number has previously been described by Duke & Cohen, “Morphological And Biochemical Assays Of Apoptosis,” Current Protocols In Immunology, Coligan et al., eds., 3.17.1-3.17.16 (1992), which is incorporated herein by reference.
For example, floating and attached cells can be collected by trypsinization and washed three times in PBS. Aliquots of cells can be centrifuged. The pellet can then be re-suspended in media and a dye mixture containing acridine orange and ethidium bromide prepared in PBS and mixed gently. The mixture can then be placed on a microscope slide and examined for morphological features of apoptosis.
Reference compounds and test compounds were analyzed for their novel PDE inhibitory activity in accordance with the protocols for the assay, supra. […] Apoptotic and necrotic cell death was determined previously (Duke and Cohen, In: Current Protocols in Immunology, 3.17.1-3.17.16, New York, John Wiley and Sons, 1992). […]
The apoptosis inducing activity for a series of phosphodiesterase inhibitors was determined. […] Apoptosis and necrosis were determined morphologically after acridine orange and ethidium bromide labeling in accordance with the assay described, supra.

[7] = molecular target: T3, novel cGMP-specific PDE Peak B (Section IIB) from SW480 cells (Homo sapiens, UniProt O00408); assay: Inhibition of cGMP hydrolysis by novel PDE Peak B from SW480; format: biochemical
T3 construct: IC50 Peak B (μM); native enzyme
T3 sequence (O00408 whole entry): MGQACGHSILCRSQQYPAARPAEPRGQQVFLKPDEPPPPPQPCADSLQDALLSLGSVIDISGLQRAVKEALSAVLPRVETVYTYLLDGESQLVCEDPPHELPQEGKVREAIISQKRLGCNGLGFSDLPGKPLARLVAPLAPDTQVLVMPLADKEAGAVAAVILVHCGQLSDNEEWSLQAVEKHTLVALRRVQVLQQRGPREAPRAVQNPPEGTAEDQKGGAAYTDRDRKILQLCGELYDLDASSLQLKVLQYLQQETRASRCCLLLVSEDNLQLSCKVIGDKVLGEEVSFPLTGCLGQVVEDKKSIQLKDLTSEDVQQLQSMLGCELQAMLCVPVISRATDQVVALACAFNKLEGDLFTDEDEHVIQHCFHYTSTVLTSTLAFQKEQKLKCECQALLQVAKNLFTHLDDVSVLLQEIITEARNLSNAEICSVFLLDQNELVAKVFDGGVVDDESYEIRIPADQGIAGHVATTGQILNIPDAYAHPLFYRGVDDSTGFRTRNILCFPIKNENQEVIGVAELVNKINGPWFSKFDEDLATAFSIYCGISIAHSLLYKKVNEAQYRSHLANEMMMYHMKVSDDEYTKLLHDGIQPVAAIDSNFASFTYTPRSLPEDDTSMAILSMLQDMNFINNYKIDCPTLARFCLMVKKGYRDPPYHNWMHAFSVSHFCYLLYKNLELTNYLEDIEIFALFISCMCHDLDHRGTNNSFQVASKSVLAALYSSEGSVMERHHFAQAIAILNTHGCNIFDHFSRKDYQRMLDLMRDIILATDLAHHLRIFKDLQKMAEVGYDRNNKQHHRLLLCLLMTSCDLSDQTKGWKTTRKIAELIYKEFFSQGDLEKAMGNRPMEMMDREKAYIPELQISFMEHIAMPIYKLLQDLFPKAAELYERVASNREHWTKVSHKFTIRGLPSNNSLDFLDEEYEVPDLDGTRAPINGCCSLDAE

[8] = tested on: novel cGMP-specific PDE Peak B (Section IIB) from SW480 cells; assay: as above; format: biochemical, human
[9] = tested on: Calu-6 adenocarcinoma cell line; assay: Cell growth, alone and in combination with vinca alkaloid; format: cell-based, human; conditions: Calu-6, 1-hour exposure, 0.01 mcg/ml
Experimental: Exisulind and Compound I were analyzed using two human lung cancer cell lines; H460, a large cell carcinoma with a doubling time of 16 hours, and Calu-6, an adenocarcinoma with a doubling time of 21 hours. Exisulind and Compound I were analyzed alone and in combination with the vinca alkaloid, Navelbine™ vinorelbine. The cytotoxic agents were administered for 1 hour, while exisulind and Compound I were administered for either 1 hour or given as a continuous exposure.
Cells were plated on day 0 and allowed to attach. On day 1, the cells were exposed to one of the cytotoxic agents dissolved in media pre-warmed to 37° C. and incubated at 37° C. for 1 hour. The cells were then washed twice and re-fed pre-warned media with or without either exisulind or Compound I and incubated for one hour at 37° C. After the one-hour incubation, the cells were washed twice, re-fed, and returned to the incubator; the continuous exposure cultures were not washed and re-fed. Appropriate controls were included for each condition. […] All data points were done in triplicate and the mean graphed as a percent of control growth.
Exisulind and Compound I were first dissolved in DMSO and brought to the desired concentrations by slowly adding warm media to the drug-DMSO solution to prevent precipitation.

5-fluoro-2-methyl-1-(p-methylsulfinylbenzylidene)-3-indenylacetic acid [Sulindac sulfide]
Competitive (with cGMP) binding/inhibition, Peak A [1]: competitively inhibited both Peaks A and B phosphodiesterases at the same potency | Increase in levels of cGMP [2]: greater than 50% | Levels of cAMP [2]: unaffected | Growth inhibition and apoptosis time course ([3]; HT-29, 120 μM, viable cells by trypan blue, apoptosis morphological): capable of inhibiting tumor cell growth, and that the effect is accompanied by an increase in apoptosis | Inhibition of premalignant lesions in mammary gland organ culture [4]: inactive | Competition with cGMP for binding of GST-cGB-PDE5 ([5]; 3H-cGMP 2 μM): do not bind to the cGMP binding sites of PDE5

CCCCOC1C2OP(=O)(O)OCC2OC1n1cnc2c(N)ncnc21 (stereo not shown) [2′-O-butyl-cAMP]
Competition with cGMP for binding of GST-cGB-PDE5 ([5]; 3H-cGMP 2 μM): did not compete with cGMP in binding

CCCCOC1C2OP(=O)(O)OCC2OC1n1cnc2c(=O)[nH]c(N)nc21 (stereo not shown) [2′-O-butyl-cGMP]
Competition with cGMP for binding of GST-cGB-PDE5 ([5]; 3H-cGMP 2 μM): did not compete with cGMP in binding

COCc1nc2c([nH]1)c(=O)n(C)c(=O)n2CC(C)C [8-methoxy-IBMX]
% Apoptosis [6]: 2% | % Necrosis [6]: 1% | IC50 ([3]; HT-29, 6 days, SRB assay): > 200 µM

Nc1nc2c(nc(Br)n2[C@@H]2O[C@@H]3COP(=O)(O)O[C@H]3[C@H]2O)c(=O)[nH]1 [Compound 8-bromo-cGMP, 8-bromo-cGMP]
Competition with cGMP for binding of GST-cGB-PDE5 at high concentration [5]: can partially compete with cGMP

COc1cc(C=C2C(C)=C(CC(=O)O)c3cc(F)ccc32)cc(OC)c1OC [Compound B, (Z)-5-Fluoro-2-methyl-1-(3,4,5-trimethoxybenzylidene)-3-acetic acid]
Competition with cGMP for binding of GST-cGB-PDE5 ([5]; 3H-cGMP 2 μM): do not bind to the cGMP binding sites of PDE5

COc1cc(/C=C2/C(C)=C(CC(=O)NCc3ccccc3)c3cc(F)ccc32)cc(OC)c1OC [Compound E, (Z)-5-Fluoro-2-methyl-1-(3,4,5-trimethoxybenzylidene)-3-indenylacetamide, N-benzyl]
Competitive (with cGMP) binding/inhibition, Peak A [1]: does competitively (with cGMP) bind to PDE 5 (i.e., Peak A) | Competitive (with cGMP) binding/inhibition, Peak B [7]: also competitively (with cGMP) binds to PDE Peak B | IC50 [7]: 0.37 µM | Ratio (IC50 PeakA/Peak B) [8]: 1.0 | Competition with cGMP for binding of GST-cGB-PDE5 ([5]; 3H-cGMP 2 μM): do not bind to the cGMP binding sites of PDE5

Nc1ncnc2c1ncn2[C@@H]1O[C@@H]2COP(=O)(O)O[C@H]2[C@H]1O [Cyclic AMP]
Competition with cGMP for binding of GST-cGB-PDE5 [5]: did not compete with cGMP in binding

O=c1[nH]cnc2c1ncn2[C@@H]1O[C@@H]2COP(=O)(O)O[C@H]2[C@H]1O [Cyclic IMP]
Competition with cGMP for binding of GST-cGB-PDE5 at high concentration [5]: can partially compete with cGMP

CC1(C)C(=O)Nc2ccc(C3=NNC(=O)CC3)cc21 [Indolidan]
IC50 [7]: > 100 µM | Ratio (IC50 PeakA/Peak B) [8]: <0.31

COc1ccc(C2CNC(=O)C2)cc1OC1CCCC1 (stereo not shown) [Rolipram]
IC50 [7]: > 100 µM | Levels of cAMP [2]: increased cAMP

CCCc1nn(C)c2c(=O)[nH]c(-c3cc(S(=O)(=O)N4CCN(C)CC4)ccc3OCC)nc12 [Sildenafil, sildenafil]
Inhibition of Peak A activity [1]: inhibited activity of Peak A

CCOC(=O)C1=C[C@]2(CC)CCCN3CCc4c(n1c1ccccc41)[C@@H]32 [Vinpocetine]
IC50 [7]: > 100 µM

CCCOc1ccccc1-c1nc2nn[nH]c2c(=O)[nH]1 [Zaprinast, zaprinast]
Competition with cGMP for binding of GST-cGB-PDE5 ([5]; 3H-cGMP 2 μM): do not bind to the cGMP binding sites of PDE5

Nc1ccn([C@@H]2O[C@@H]3COP(=O)(O)O[C@H]3[C@H]2O)c(=O)n1 [cCMP, cyclic CMP]
Competition with cGMP for binding of GST-cGB-PDE5 ([5]; 3H-cGMP 2 μM): did not compete with cGMP in binding

O=c1ccn([C@@H]2O[C@@H]3COP(=O)(O)O[C@H]3[C@H]2O)c(=O)[nH]1 [cUMP, cyclic UMP]
Competition with cGMP for binding of GST-cGB-PDE5 ([5]; 3H-cGMP 2 μM): did not compete with cGMP in binding

CCC1=C[C@@H]2CN(C1)Cc1c([nH]c3ccccc13)[C@@](C(=O)OC)(c1cc3c(cc1OC)N(C)[C@H]1[C@@](O)(C(=O)OC)[C@H](OC(C)=O)[C@]4(CC)C=CCN5CC[C@]31[C@@H]54)C2 [vinca alkaloid, vinorelbine]
% of control growth [9]: 52% | activity at 0.01 µg/mL ([9]; Homo sapiens, Calu-6, 1 h, read-out: % of control growth): 56%
